The record followed here is PubChem BioAssay (NCI).

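How tested: cells in 96-well plates exposed to compound for 48 hours at five concentrations. At the GI50, growth is halved. TGI: concentration producing complete growth inhibition.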

Some test systems named below: MDA-MB-231 breast; U251 CNS; M14 melanoma; K-562 leukemia; A549 NSCLC; A498 renal; MDA-MB-435; 786-0 renal; UACC-62 melanoma; BT-549 breast.
What all share (test): NCI anticancer screen, dose series, 48 h

Take `COc1ccc(NC([Se])=NC23CC4CC(CC(C4)C2)C3)cc1`: the GI50 was 1.79 µM in the assay with MDA-MB-231 breast; 1.27 µM in the assay with U251 CNS; 1.37 µM with M14 melanoma; 0.542 µM in the assay on K-562 leukemia; 2.38 µM in the assay on A549 NSCLC; 1.32 µM with A498 renal. For the same compound, the GI50 in the assay with MDA-MB-435 is 2.84 µM; in the assay on 786-0 renal, 1.78 µM; in the assay with UACC-62 melanoma it was 1.43 µM; in the assay on BT-549 breast, 0.874 µM. Moreover, the TGI in the assay with MDA-MB-231 breast came to 3.91 µM; in the assay on U251 CNS, 4.91 µM; in the assay on M14 melanoma, 3.29 µM; in the assay with K-562 leukemia, 18.8 µM; in the assay with A549 NSCLC, 7.78 µM; in the assay with A498 renal it was 4.75 µM. Further, the TGI turned out to be 19.5 µM in the assay with MDA-MB-435, 4.22 µM in the assay on 786-0 renal, 4.96 µM in the assay on UACC-62 melanoma and 2.32 µM with BT-549 breast.
In the case of `Cc1ccc2c(-c3ccnc(Nc4ccccc4)n3)c(-c3ccc(F)cc3)nn2n1`, the GI50 in the assay on MDA-MB-231 breast is 8.25 µM; in the assay with U251 CNS, 9.8 µM; in the assay with M14 melanoma, 9.56 µM; in the assay on K-562 leukemia, 13.5 µM; in the assay on A549 NSCLC, 5.28 µM; in the assay with A498 renal, 4.78 µM. For the same compound, the GI50 with MDA-MB-435 is 6.83 µM; in the assay on 786-0 renal, 4.84 µM; with UACC-62 melanoma, 7.82 µM; with BT-549 breast, 10.7 µM. The TGI was more than 25 µM in the assay on MDA-MB-231 breast; more than 25 µM in the assay with U251 CNS; more than 25 µM with M14 melanoma; more than 25 µM in the assay with K-562 leukemia; more than 25 µM in the assay with A549 NSCLC; 21.5 µM with A498 renal. For the same compound, the TGI in the assay on MDA-MB-435 is more than 25 µM; with 786-0 renal, 20.8 µM; in the assay with UACC-62 melanoma, more than 25 µM; in the assay on BT-549 breast, more than 25 µM.
For `O=C(O)CCCSc1ccccc1`, the TGI with MDA-MB-231 breast, in the assay on U251 CNS, in the assay on M14 melanoma, with K-562 leukemia, with A549 NSCLC and in the assay on A498 renal was more than 100 µM throughout. Further, the TGI in the assay with MDA-MB-435, with 786-0 renal, in the assay on UACC-62 melanoma and in the assay with BT-549 breast was more than 100 µM in each case.
As for `O=C(O)c1ccc(Oc2nccc(-c3c(-c4ccc(F)cc4)ncn3C3CCNCC3)n2)cc1`, the GI50 in the assay with MDA-MB-231 breast, in the assay with U251 CNS, in the assay with M14 melanoma, in the assay with K-562 leukemia, in the assay with A549 NSCLC and in the assay on A498 renal was more than 25 µM each time. Besides, the GI50 with MDA-MB-435, in the assay with 786-0 renal, in the assay with UACC-62 melanoma and in the assay with BT-549 breast was more than 25 µM in each case. Further, the TGI in the assay with MDA-MB-231 breast, in the assay with U251 CNS, in the assay with M14 melanoma, in the assay with K-562 leukemia, in the assay on A549 NSCLC and in the assay with A498 renal was more than 25 µM in each case. The TGI in the assay on MDA-MB-435, in the assay on 786-0 renal, in the assay with UACC-62 melanoma and with BT-549 breast was more than 25 µM throughout.
On to `O=C1NC(=O)C(c2ccccc2Cl)=C1Nc1cc(Cl)c(O)c(Cl)c1`, for which the GI50 in the assay with MDA-MB-231 breast is more than 25 µM; with U251 CNS, 13.3 µM; in the assay on M14 melanoma it was more than 19.5 µM; with K-562 leukemia, 12.3 µM; in the assay on A549 NSCLC, more than 25 µM; in the assay with A498 renal, more than 25 µM. Further, the GI50 with MDA-MB-435 was 8.78 µM; in the assay with 786-0 renal it was 23.7 µM; in the assay on UACC-62 melanoma, 11.4 µM; with BT-549 breast it was 16.7 µM. Also, the TGI in the assay on MDA-MB-231 breast, with U251 CNS, in the assay with M14 melanoma, in the assay on K-562 leukemia, in the assay with A549 NSCLC and with A498 renal was more than 25 µM each time. The TGI in the assay with MDA-MB-435, in the assay on 786-0 renal, in the assay with UACC-62 melanoma and in the assay on BT-549 breast was more than 25 µM in each case.
